Test results as given in paper PMC5569483, “Screening and evolution of a novel protist xylose isomerase from the termite Reticulitermes speratus for efficient xylose fermentation in Saccharomyces cerevisiae” (Biotechnology for Biofuels, 2017).

System: T1, RsXI-C1
T1 construct: full-length ORF, codon-optimized gene, expressed in S. cerevisiae W600W (strain WR311), crude cell extract
Experiment: coupled sorbitol dehydrogenase assay, NADH oxidation at […] nm, Lineweaver-Burk
Format: biochemical, uncultured symbiotic protist of Reticulitermes speratus
Conditions: crude cell extract; 100 mM Tris-HCl pH 7.5, 10 mM MgSO4, 0.15 mM NADH, 30 °C, 5–250 mM D-xylose

OC1OC[C@@H](O)[C@H](O)[C@H]1O (stereo partly shown) [xylose]
Km: 10.5 ± 1.1 mM
